According to patent publication US20150141381A1, “TETRACYCLINE COMPOUNDS HAVING TARGET THERAPEUTIC ACTIVITIES” (Paratek Pharmaceuticals, Inc., priority 2001, published 2015):
Like-named read-outs stand apart in the source and are kept apart here.

Assays:
[1] = system: S. aureus RN450; assay: In Vitro Anti-Bacterial Activity Assay (MIC), gram positive; format: cell-based; conditions: Staphylococcus aureus, RN450, 18 h
[2] = system: E. coli mL308 225; assay: In Vitro Anti-Bacterial Activity Assay (MIC), gram negative; format: cell-based; conditions: Escherichia coli, ML308225, 18 h
[3] = gram positive bacteria, read-out: Antibiotic Activity Gram + (MIC)
[4] = gram negative bacteria, read-out: Antibiotic Activity Gram − (MIC)
[5] = MIC class, Table 3, read-out: Antibiotic Activity Gram +
[6] = MIC class, Table 3, read-out: Antibiotic Activity Gram −
[7] = MIC class, Table 3 (Continued), read-out: Gram+ activity
[8] = MIC class, Table 3 (Continued), read-out: Gram− activity

CN(C)[C@@H]1C(O)=C(C(N)=O)C(=O)[C@@]2(O)C(O)=C3C(=O)c4c(O)ccc(-c5cccnc5)c4C[C@H]3C[C@@H]12
MIC [1, 3]: < 4 µg/mL
MIC [2, 4]: < 4 µg/mL

CN(C)c1ccc2c(c1O)C(=O)C1=C(O)[C@]3(O)C(=O)C(C(N)=O)=C(O)[C@@H](N(C)C)[C@@H]3C[C@@H]1C2 [JX]
MIC [1, 5]: < 4 µg/mL
MIC [2, 6]: > 4 µg/mL

CO/N=C/c1cc(-c2ccc(O)c3c2C[C@H]2C[C@H]4[C@H](N(C)C)C(O)=C(C(N)=O)C(=O)[C@@]4(O)C(O)=C2C3=O)ccc1OC [HV]
MIC [1, 5]: < 4 µg/mL
MIC [2, 6]: > 4 µg/mL

COC(CN(Cc1ccc(O)c2c1C[C@H]1C[C@H]3[C@@H](N(C)C)C(O)=C(C(N)=O)C(=O)[C@@]3(O)C(O)=C1C2=O)CC(OC)OC)OC [KD]
MIC [1, 5]: < 4 µg/mL
MIC [2, 6]: > 4 µg/mL

C[C@H]1c2c(N)cc(I)c(O)c2C(=O)C2=C(O)[C@]3(O)C(=O)C(C(N)=O)=C(O)[C@@H](N(C)C)[C@@H]3[C@@H](O)[C@@H]21
MIC [1, 3]: > 4 µg/mL
MIC [2, 4]: > 4 µg/mL

CN(C)c1cc(CNCCC(F)(F)F)c(O)c2c1C[C@H]1C[C@H]3[C@H](N(C)C)C(O)=C(C(N)=O)C(=O)[C@@]3(O)C(O)=C1C2=O [drawing 3671]
MIC [1, 3]: < 4 µg/mL
MIC [2, 4]: < 4 µg/mL

CN(C)c1cc(-c2ccc3c(c2)OCO3)c(O)c2c1C[C@H]1C[C@H]3[C@H](N(C)C)C(O)=C(C(N)=O)C(=O)[C@@]3(O)C(O)=C1C2=O [Y]
MIC [1, 5]: < 4 µg/mL
MIC [2, 6]: > 4 µg/mL

CN(C)c1ccc(-c2cc(C(C)(C)C)c(O)c3c2C[C@H]2C[C@H]4[C@H](N(C)C)C(O)=C(C(N)=O)C(=O)[C@@]4(O)C(O)=C2C3=O)cc1
MIC [1, 3]: > 4 µg/mL
MIC [2, 4]: > 4 µg/mL

CN(C)[C@@H]1C(O)=C(C(N)=O)C(=O)[C@@]2(O)C(O)=C3C(=O)c4c(O)ccc(C(=O)O)c4C[C@H]3C[C@@H]12
MIC [1, 3]: > 4 µg/mL
MIC [2, 4]: > 4 µg/mL

Cc1ccc(CCc2ccc(O)c3c2C[C@H]2C[C@H]4[C@H](N(C)C)C(O)=C(C(N)=O)C(=O)[C@@]4(O)C(O)=C2C3=O)cc1
MIC [1, 7]: < 4 µg/mL
MIC [2, 8]: < 4 µg/mL

C[C@H]1c2cccc(O)c2C(=O)C2=C(O)[C@]3(O)C(=O)C(C(N)=O)=C(O)[C@@H](N(C)C)[C@@H]3[C@@H](O)[C@@H]21 [drawing 3660]
MIC [1, 3]: < 4 µg/mL
MIC [2, 4]: > 4 µg/mL

CN(C)[C@@H]1C(O)=C(C(N)=O)C(=O)[C@@]2(O)C(O)=C3C(=O)c4c(ccc(NC(=O)c5ccno5)c4O)C[C@H]3C[C@@H]12 [IJ]
MIC [1, 5]: < 4 µg/mL
MIC [2, 6]: > 4 µg/mL

COC(=O)c1ccc(O)c2c1C[C@H]1C[C@H]3[C@H](N(C)C)C(O)=C(C(N)=O)C(=O)[C@@]3(O)C(O)=C1C2=O
MIC [1, 3]: < 4 µg/mL
MIC [2, 4]: < 4 µg/mL

C[C@H]1c2ccc(-c3cccc(C=O)c3)c(O)c2C(=O)C2=C(O)[C@]3(O)C(=O)C(C(N)=O)=C(O)[C@@H](N(C)C)[C@@H]3[C@@H](O)[C@@H]21
MIC [1, 3]: < 4 µg/mL
MIC [2, 4]: < 4 µg/mL

CN(C)[C@@H]1C(O)=C(C(N)=O)C(=O)[C@@]2(O)C(O)=C3C(=O)c4c(ccc(NCCNC(C)(C)C)c4O)C[C@H]3C[C@@H]12
MIC [1, 3]: < 4 µg/mL
MIC [2, 4]: < 4 µg/mL

CCCCOCCCNCc1ccc(OC)c(-c2ccc(O)c3c2C[C@H]2C[C@H]4[C@H](N(C)C)C(O)=C(C(N)=O)C(=O)[C@@]4(O)C(O)=C2C3=O)c1 [FR]
MIC [1, 5]: < 4 µg/mL
MIC [2, 6]: < 4 µg/mL

COC(=O)CCc1ccc(O)c2c1C[C@H]1C[C@H]3C(N(C)C)C(O)=C(C(N)=O)C(=O)[C@@]3(O)C(O)=C1C2=O (some centres unmarked) [FC]
MIC [1, 5]: < 4 µg/mL
MIC [2, 6]: > 4 µg/mL

CN(C)[C@@H]1C(O)=C(C(N)=O)C(=O)[C@@]2(O)C(O)=C3C(=O)c4c(O)cccc4/C(=C\c4ccc(F)cc4)[C@H]3[C@H](O)[C@@H]12
MIC [1, 7]: < 4 µg/mL
MIC [2, 8]: < 4 µg/mL

O=c1cc(-c2ccc(F)cc2)oc2ccccc12
MIC [1, 3]: < 4 µg/mL
MIC [2, 4]: < 4 µg/mL

CCOC(=O)c1csc(NCc2cc(N(C)C)c3c(c2O)C(=O)C2=C(O)[C@]4(O)C(=O)C(C(N)=O)=C(O)C(N(C)C)[C@@H]4C[C@@H]2C3)n1 (some centres unmarked) [MT]
MIC [1, 5]: > 4 µg/mL
MIC [2, 6]: > 4 µg/mL

CCc1cc(CNCC(C)C)c(O)c2c1C[C@H]1C[C@H]3[C@H](N(C)C)C(O)=C(C(N)=O)C(=O)[C@@]3(O)C(O)=C1C2=O [IZ]
MIC [1, 5]: < 4 µg/mL
MIC [2, 6]: < 4 µg/mL

CN(C)c1cc(CN)c(O)c2c1C[C@H]1C[C@H]3[C@H](N(C)C)C(O)=C(C(N)=O)C(=O)[C@@]3(O)C(O)=C1C2=O
MIC [1, 3]: < 4 µg/mL
MIC [2, 4]: > 4 µg/mL

CN(C)[C@@H]1C(O)=C(C(N)=O)C(=O)[C@@]2(O)C(O)=C3C(=O)c4c(O)ccc(-c5ccc(CN6CCOCC6)o5)c4C[C@H]3C[C@@H]12 [HM]
MIC [1, 5]: < 4 µg/mL
MIC [2, 6]: < 4 µg/mL

CN(C)[C@@H]1C(O)=C(C(N)=O)C(=O)[C@@]2(O)C(O)=C3C(=O)c4c(O)ccc(C5CCOC5)c4C[C@H]3C[C@@H]12 (some centres unmarked)
MIC [1, 3]: < 4 µg/mL
MIC [2, 4]: < 4 µg/mL

CN(C)[C@@H]1C(O)=C(C(N)=O)C(=O)[C@@]2(O)C(O)=C3C(=O)c4c(O)ccc(/C=C(\Cl)CO)c4C[C@H]3C[C@@H]12
MIC [1, 7]: < 4 µg/mL
MIC [2, 8]: > 4 µg/mL

CN(C)c1cc(CCC(=O)NC(C)(C)C)c(O)c2c1C[C@H]1C[C@H]3[C@H](N(C)C)C(O)=C(C(N)=O)C(=O)[C@@]3(O)C(O)=C1C2=O
MIC [1, 3]: > 4 µg/mL
MIC [2, 4]: > 4 µg/mL

CN(C)c1cc(CNCC(=O)C(C)(C)C)c(O)c2c1C[C@H]1C[C@H]3[C@H](N(C)C)C(O)=C(C(N)=O)C(=O)[C@@]3(O)C(O)=C1C2=O
MIC [1, 3]: < 4 µg/mL
MIC [2, 4]: > 4 µg/mL

Cc1ccc(OC(=O)NCc2cc(N(C)C)c3c(c2O)C(=O)C2=C(O)[C@]4(O)C(=O)C(C(N)=O)=C(O)[C@@H](N(C)C)[C@@H]4C[C@@H]2C3)cc1 [FG]
MIC ([1]; read-out: Antibiotic Activity Gram +): < 4 µg/mL
MIC ([2]; read-out: Antibiotic Activity Gram −): > 4 µg/mL

CC(=O)O[C@H]1[C@H]2C(=C(O)[C@]3(O)C(=O)C(C(N)=O)=C(O)[C@@H](N(C)C)[C@H]13)C(=O)c1c(ccc(CN3CCC(C(F)(F)F)CC3)c1O)[C@@H]2C
MIC [1, 3]: < 4 µg/mL
MIC [2, 4]: < 4 µg/mL

CCc1cc(N(C)C)c2c(c1O)C(=O)C1=C(O)[C@]3(O)C(=O)C(C(N)=O)=C(O)C(N(C)C)[C@@H]3C[C@@H]1C2 (some centres unmarked) [IA]
MIC [1, 5]: < 4 µg/mL
MIC [2, 6]: > 4 µg/mL

CN(C)[C@@H]1C(O)=C(C(N)=O)C(=O)[C@@]2(O)C(O)=C3C(=O)c4c(O)ccc(-c5ccc(CNCC(F)(F)F)cc5)c4C[C@H]3C[C@@H]12 [drawing 3505]
MIC [1, 3]: < 4 µg/mL
MIC [2, 4]: < 4 µg/mL

CCC(CC)c1ccc(CCc2ccc(O)c3c2C[C@H]2C[C@H]4[C@H](N(C)C)C(O)=C(C(N)=O)C(=O)[C@@]4(O)C(O)=C2C3=O)cc1
MIC [1, 7]: < 4 µg/mL
MIC [2, 8]: < 4 µg/mL

CN(C)[C@@H]1C(O)=C(C(N)=O)C(=O)[C@@]2(O)C(O)=C3C(=O)c4c(O)ccc(C=C5CCC5)c4C[C@H]3C[C@@H]12
MIC [1, 7]: < 4 µg/mL
MIC [2, 8]: < 4 µg/mL

CN(C)c1ccc(-c2ccc(O)c3c2C[C@H]2C[C@H]4[C@H](N(C)C)C(O)=C(C(N)=O)C(=O)[C@@]4(O)C(O)=C2C3=O)cc1
MIC [1, 7]: < 4 µg/mL
MIC [2, 8]: < 4 µg/mL

CN(C)[C@@H]1C(O)=C(C(N)=O)C(=O)[C@@]2(O)C(O)=C3C(=O)c4c(cccc4OCCCO)C[C@H]3C[C@@H]12
MIC [1, 3]: > 4 µg/mL
MIC [2, 4]: > 4 µg/mL

CN(C)[C@@H]1C(O)=C(C(N)=O)C(=O)[C@@]2(O)C(O)=C3C(=O)c4c(O)ccc(CCCNS(C)(=O)=O)c4C[C@H]3C[C@@H]12 [CQ]
MIC [1, 5]: < 4 µg/mL
MIC [2, 6]: > 4 µg/mL

CCCCOC(=O)c1ccc(O)c2c1C[C@H]1C[C@H]3[C@H](N(C)C)C(O)=C(C(N)=O)C(=O)[C@@]3(O)C(O)=C1C2=O
MIC [1, 3]: < 4 µg/mL
MIC [2, 4]: < 4 µg/mL

CN(C)[C@@H]1C(O)=C(C(N)=O)C(=O)[C@@]2(O)C(O)=C3C(=O)c4c(O)c(CN5CCCCC5)cc(-c5ccoc5)c4C[C@H]3C[C@@H]12 [drawing 3602]
MIC [1, 3]: < 4 µg/mL
MIC [2, 4]: > 4 µg/mL

C/C(=N/OCC(C)C)c1ccc(O)c2c1C[C@H]1C[C@H]3[C@H](N(C)C)C(O)=C(C(N)=O)C(=O)[C@@]3(O)C(O)=C1C2=O
MIC [1, 3]: < 4 µg/mL
MIC [2, 4]: < 4 µg/mL

CN(C)[C@@H]1C(O)=C(C(N)=O)C(=O)[C@@]2(O)C(O)=C3C(=O)c4c(O)ccc(C#Cc5ccccc5)c4C[C@H]3C[C@@H]12
MIC [1, 7]: < 4 µg/mL
MIC [2, 8]: < 4 µg/mL

Cc1cc(CNCc2cc(N(C)C)c3c(c2O)C(=O)C2=C(O)[C@]4(O)C(=O)C(C(N)=O)=C(O)[C@@H](N(C)C)[C@@H]4C[C@@H]2C3)oc1C [LC]
MIC [1, 5]: < 4 µg/mL
MIC [2, 6]: < 4 µg/mL

CN1C=CC(Nc2cc(C3=COCC3)c3c(c2O)C(=O)C2=C(O)[C@]4(O)C(=O)C(C(N)=O)=C(O)[C@@H](N(C)C)[C@@H]4C[C@@H]2C3)CC1 (some centres unmarked)
MIC [1, 3]: < 4 µg/mL
MIC [2, 4]: > 4 µg/mL

CN(C)[C@@H]1C(O)=C(C(N)=O)C(=O)[C@@]2(O)C(O)=C3C(=O)c4c(O)ccc(CNC(=O)C(C)(C)C)c4C[C@H]3C[C@@H]12
MIC [1, 3]: < 4 µg/mL
MIC [2, 4]: > 4 µg/mL

CN(C)c1cc(C#CC2=CCCCC2)c(O)c2c1C[C@H]1C[C@H]3[C@H](N(C)C)C(O)=C(C(N)=O)C(=O)[C@@]3(O)C(O)=C1C2=O
MIC [1, 7]: < 4 µg/mL
MIC [2, 8]: < 4 µg/mL

Cc1cnc(N)n1Cc1cc(N(C)C)c2c(c1O)C(=O)C1=C(O)[C@]3(O)C(=O)C(C(N)=O)=C(O)[C@@H](N(C)C)[C@@H]3C[C@@H]1C2 [drawing 3711]
MIC [1, 3]: < 4 µg/mL
MIC [2, 4]: > 4 µg/mL

CN(C)c1cc(-c2ccc(Cl)c(Cl)c2)c(O)c2c1C[C@H]1C[C@H]3[C@H](N(C)C)C(O)=C(C(N)=O)C(=O)[C@@]3(O)C(O)=C1C2=O [AI]
MIC [1, 5]: < 4 µg/mL
MIC [2, 6]: > 4 µg/mL
